# Structures can show the parent of a compound that is named as a salt.
# Biological target: T1, ROCK2 (Homo sapiens (Human), UniProt O75116)
# Assay: biochemical
# 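Further: rho kinase enzyme reaction halted with EDTA, phospho- and non-phospho peptide separated for read-out, kinase activity inhibition derived across a dose-response series, DMSO under 2%.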
# T1 sequence (O75116 whole entry, species assumed): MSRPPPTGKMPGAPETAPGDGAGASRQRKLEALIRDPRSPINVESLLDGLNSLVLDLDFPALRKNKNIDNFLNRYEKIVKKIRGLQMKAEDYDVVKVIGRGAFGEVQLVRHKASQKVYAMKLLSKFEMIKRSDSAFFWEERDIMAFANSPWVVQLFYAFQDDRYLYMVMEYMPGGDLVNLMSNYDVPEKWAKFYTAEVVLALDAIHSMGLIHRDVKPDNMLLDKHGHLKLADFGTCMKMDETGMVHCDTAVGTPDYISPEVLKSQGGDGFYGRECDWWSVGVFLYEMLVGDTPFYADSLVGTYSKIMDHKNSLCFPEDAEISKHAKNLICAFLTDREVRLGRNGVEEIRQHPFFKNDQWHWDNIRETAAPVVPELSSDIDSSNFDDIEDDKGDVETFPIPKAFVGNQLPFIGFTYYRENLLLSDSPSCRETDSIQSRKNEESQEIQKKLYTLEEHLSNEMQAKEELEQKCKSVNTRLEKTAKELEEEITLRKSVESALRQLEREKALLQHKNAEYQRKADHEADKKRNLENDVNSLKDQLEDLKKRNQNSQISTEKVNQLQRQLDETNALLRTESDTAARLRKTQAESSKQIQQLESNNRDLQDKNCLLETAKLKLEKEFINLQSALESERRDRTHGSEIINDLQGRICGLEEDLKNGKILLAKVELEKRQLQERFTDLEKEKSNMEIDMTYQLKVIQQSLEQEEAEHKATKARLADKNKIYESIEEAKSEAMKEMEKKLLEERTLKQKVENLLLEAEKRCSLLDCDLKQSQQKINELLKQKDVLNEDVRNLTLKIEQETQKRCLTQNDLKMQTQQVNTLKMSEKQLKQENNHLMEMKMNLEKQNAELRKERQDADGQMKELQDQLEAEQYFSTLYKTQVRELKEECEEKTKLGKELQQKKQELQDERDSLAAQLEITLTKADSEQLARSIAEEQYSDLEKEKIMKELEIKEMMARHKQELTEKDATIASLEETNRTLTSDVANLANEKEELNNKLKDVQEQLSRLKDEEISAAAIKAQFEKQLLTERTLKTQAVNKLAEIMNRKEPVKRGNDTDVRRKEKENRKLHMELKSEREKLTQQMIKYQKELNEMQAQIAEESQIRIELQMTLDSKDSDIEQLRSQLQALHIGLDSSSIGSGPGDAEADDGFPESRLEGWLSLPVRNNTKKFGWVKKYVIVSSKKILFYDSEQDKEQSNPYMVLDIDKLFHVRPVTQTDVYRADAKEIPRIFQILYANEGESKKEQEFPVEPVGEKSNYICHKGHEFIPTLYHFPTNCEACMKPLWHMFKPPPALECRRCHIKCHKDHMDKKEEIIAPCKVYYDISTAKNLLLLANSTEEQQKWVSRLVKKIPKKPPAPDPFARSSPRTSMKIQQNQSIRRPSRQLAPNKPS
row,SMILES,IC50 [nM]
1,"COc1cccc(NC2CCN(c3ccc(-c4cn[nH]c4)nc3)C2=O)c1 (single isomer, unassigned) [Example 297, 1-(6-(1H-pyrazol-4-yl)pyridin-3-yl)-3-((3-methoxyphenyl)amino)pyrrolidin-2-one]",10 to 100
2,"COc1cc(N2CCC(Nc3cccc(OC(C)C)c3)C2=O)ccc1-c1cn[nH]c1 (stereo not drawn) [Example 71, 3-((3-isopropoxyphenyl)amino)-1-(3-methoxy-4-(1H-pyrazol-4-yl)phenyl)pyrrolidin-2-one, TFA]",10 to 100
3,"CCOc1cccc(NC2CCN(c3ccc(-c4cn[nH]c4)c(OC)n3)C2=O)c1 (single isomer, unassigned) [Example 218, 3-((3-ethoxyphenyl)amino)-1-(6-methoxy-5-(1H-pyrazol-4-yl)pyridin-2-yl)pyrrolidin-2-one]",< 10
4,"O=C1[C@H](Nc2ccc3c(c2)OCO3)CCN1c1ccc(-c2cn[nH]c2)cc1 [Example 396, (R)-1-(4-(1H-pyrazol-4-yl)phenyl)-3-(benzo[d][1,3]dioxo1-5-ylamino)pyrrolidin-2-one]",10 to 100
5,"COc1cccc(NC2CCN(c3ccc(-c4cn[nH]c4)cc3)C2=O)c1 (stereo not drawn) [Example 63, 1-(4-(1H-pyrazol-4-yl)phenyl)-3-((3-methoxyphenyl)amino)pyrrolidin-2-one]",< 10
6,"COc1nc(N2CCC(N3CCNc4ccccc43)C2=O)ccc1-c1cn[nH]c1 (racemic) [Example 228, 3-(3,4-dihydroquinoxalin-1(2H)-yl)-1-(6-methoxy-5-(1H-pyrazol-4-yl)pyridin-2-yl)pyrrolidin-2-one]",< 10
7,"O=C1C(NCc2cccc(F)c2)CCN1c1ccc(-c2cn[nH]c2)cc1 (stereo not drawn) [Example 61, 1-(4-(1H-pyrazol-4-yl)phenyl)-3-((3-fluorobenzyl)amino)pyrrolidin-2-one, TFA]",100 to 2200
8,"COc1cccc(OC2CCN(c3ccc(-c4ccc5cn[nH]c5c4)c(OC)n3)C2=O)c1 (single isomer, unassigned) [Example 124, 1-(5-(1H-indazol-6-yl)-6-methoxypyridin-2-yl)-3-(3-methoxyphenoxy)pyrrolidin-2-one]",100 to 2200
9,"COc1cccc(NC2CCN(c3ccc(-c4cn[nH]c4)c(OC)c3)C2=O)c1 (stereo not drawn) [Example 68, 1-(3-methoxy-4-(1H-pyrazol-4-yl)phenyl)-3-((3-methoxyphenyl)amino)pyrrolidin-2-one]",< 10
10,"COc1nc(N2CCC(N3CCC(F)(F)C3)C2=O)ccc1-c1cn[nH]c1 (racemic) [Example 284, 3,3-difluoro-1′-(6-methoxy-5-(1H-pyrazol-4-yl)pyridin-2-yl)-[1,3′-bipyrrolidin]-2′-one hydrochloride]",100 to 2200
11,"O=C1C(NCc2ccccc2)CCN1c1ccc(-c2cn[nH]c2)cc1 (stereo not drawn) [Example 57, 1-(4-(1H-pyrazol-4-yl)phenyl)-3-(benzylamino)pyrrolidin-2-one]",100 to 2200
12,"CCc1cc(N2CCC(Nc3cccc(OCC4CC4)c3)C2=O)ccc1-c1cn[nH]c1 (single isomer, unassigned) [Example 247, 3-((3-(cyclopropylmethoxy)phenyl)amino)-1-(3-ethyl-4-(1H-pyrazol-4-yl)phenyl)pyrrolidin-2-one]",10 to 100
13,"COc1nc(N2CCC(N3CCC(C(F)(F)F)CC3)C2=O)ccc1-c1cn[nH]c1 (racemic) [Example 285, 1-(6-methoxy-5-(1H-pyrazol-4-yl)pyridin-2-yl)-3-(4-(trifluoromethyl)piperidin-1-yl)pyrrolidin-2-one hydrochloride]",100 to 2200
14,"COc1ccc(F)cc1NC1CCN(c2ccc(-c3cn[nH]c3)cc2)C1=O (stereo not drawn) [Example 5, 1-(4-(1H-pyrazol-4-yl)phenyl)-3-((5-fluoro-2-methoxyphenyl)amino)pyrrolidin-2-one]",10 to 100
15,"COc1cccc(NC2CCN(c3ccc(-c4cn[nH]c4)cc3Cl)C2=O)c1 (single isomer, unassigned) [Example 166, 1-(2-chloro-4-(1H-pyrazo1-4-yl)phenyl)-3 ((3-methoxyphenyl)amino)pyrrolidin-2-one]",100 to 2200
16,"CCOc1cc(N2CCC(Nc3cc(OC)ccc3F)C2=O)ccc1-c1cn[nH]c1 (single isomer, unassigned) [Example 40, 1-(3-ethoxy-4-(1H-pyrazol-4-yl)phenyl)-3-((2-fluoro-5-methoxyphenyl)amino)pyrrolidin-2-one]",100 to 2200
17,"COc1ccc(N[C@@H]2CCN(c3ccc(-c4cn[nH]c4)cc3)C2=O)c(OC)c1 [Example 384, (R)-1-(4-(1H-pyrazol-4-yl)phenyl)-3-((2,4-dimethoxyphenyl)amino)pyrrolidin-2-one]",100 to 2200
18,"COc1cccc(NC2CCN(c3ccc(-c4cn[nH]c4)c(C#N)c3)C2=O)c1 (single isomer, unassigned) [Example 377, 5-(3-((3-methoxyphenyl)amino)-2-oxopyrrolidin-1-yl)-2-(1H-pyrazol-4-yl)benzonitrile]",100 to 2200
19,"COc1nc(N2CCC(N3CCN(S(C)(=O)=O)CC3)C2=O)ccc1-c1cn[nH]c1 (racemic) [Example 286, 1-(6-methoxy-5-(1H-pyrazol-4-yl)pyridin-2-yl)-3-(4-(methylsulfonyl)piperazin-1-yl)pyrrolidin-2-one]",100 to 2200
20,"COc1cc(F)cc(NC2CCN(c3ccc(-c4cn[nH]c4)c(C#N)c3)C2=O)c1 (single isomer, unassigned) [Example 375, 5-(3-((3-fluoro-5-methoxyphenyl)amino)-2-oxopyrrolidin-1-yl)-2-(1H-pyrazol-4-yl)benzonitrile]",10 to 100
21,"COc1ccc(F)c(NC2CCN(c3ccc(-c4cn[nH]c4)c(F)c3)C2=O)c1 (single isomer, unassigned) [Example 334, 1-(3-fluoro-4-(1H-pyrazol-4-yl)phenyl)-3-((2-fluoro-5-methoxyphenyl)amino) pyrrolidin-2-one]",10 to 100
22,"Cc1nc2ccc(NC3CCN(c4ccc(-c5cn[nH]c5)cc4)C3=O)cc2s1 (stereo not drawn) [Example 115, 1-(4-(1H-pyrazol-4-yl)phenyl)-3-((2-methylbenzo[d]thiazol-6-yl)amino)pyrrolidin-2-one]",100 to 2200
23,"COc1cc(F)cc(NC2CCN(c3ccc(-c4cn[nH]c4)c(OC)c3)C2=O)c1 (single isomer, unassigned) [Example 137, 3-((3-fluoro-5-methoxyphenyl)amino)-1-(3-methoxy-4-(1H-pyrazol-4-yl)phenyl) pyrrolidin-2-one]",< 10
24,"COc1cccc(NC2CCN(c3cc(C)c(-c4cn[nH]c4)cn3)C2=O)c1 (racemic) [Example 200, 3-((3-methoxyphenyl)amino)-1-(4-methyl-5-(1H-pyrazol-4-yl)pyridin-2-yl)pyrrolidin-2-one]",100 to 2200
25,"COc1cc(NC2CCN(c3ccc(-c4cn[nH]c4)c(OC(F)F)c3)C2=O)ccc1F (single isomer, unassigned) [Example 106, 1-[3-(difluoromethoxy)-4-(1H-pyrazol-4-yl)phenyl]-3-[(4-fluoro-3-methoxyphenyl)amino]pyrrolidin-2-one]",10 to 100
26,"COc1ccc(F)c(NC2CCN(c3ccc(-c4cn[nH]c4)cc3F)C2=O)c1 (single isomer, unassigned) [Example 340, 1-(2-fluoro-4-(1H-pyrazol-4-yl)phenyl)-3-((2-fluoro-5-methoxyphenyl)amino) pyrrolidin-2-one]",100 to 2200
27,"O=C1C(Cc2ccc(F)cc2)CCN1c1ccc(-c2cn[nH]c2)cc1 (stereo not drawn) [Example 98, 1-(4-(1H-pyrazol-4-yl)phenyl)-3-(4-fluorobenzyl)pyrrolidin-2-one]",100 to 2200
28,"COc1cc(F)cc(NC2CCN(c3ccc(-c4cn[nH]c4)c(C(F)F)c3)C2=O)c1 (single isomer, unassigned) [Example 177, 1-(3-(difluoromethyl)-4-(1H-pyrazol-4-yl)phenyl)-3-((3-fluoro-5-methoxyphenyl)amino)pyrrolidin-2-one]",100 to 2200
29,"COc1cccc(NC2CCN(c3ccc(-c4cn[nH]c4)c(F)c3)C2=O)c1 (single isomer, unassigned) [Example 45, 1-(3-fluoro-4-(1H-pyrazol-4-yl)phenyl)-3-((3-methoxyphenyl)amino)pyrrolidin-2-one]",< 10

# Biological target: T1, ROCK2
# Assay: not given
row,SMILES,IC50 [nM]
1,"COc1ccc(F)c(NC2CCN(c3ccc(-c4cn[nH]c4)c(F)c3)C2=O)c1 (single isomer, unassigned) [Example 335, 1-(3-fluoro-4-(1H-pyrazol-4-yl)phenyl)-3-((2-fluoro-5-methoxyphenyl)amino) pyrrolidin-2-one]",10 to 100
2,"COc1nc(N2CCC(Nc3cccc(OCC4CC4)c3)C2=O)ccc1-c1cn[nH]c1 (single isomer, unassigned) [Example 215, 3-((3-(cyclopropylmethoxy)phenyl)amino)-1-(6-methoxy-5-(1H-pyrazol-4-yl)pyridin-2-yl)pyrrolidin-2-one]",< 10
3,"COc1cc(F)cc(NC2CCN(c3ccc(-c4cn[nH]c4)c(OC)n3)C2=O)c1 (single isomer, unassigned) [Example 199, 3-((3-fluoro-5-methoxyphenyl)amino)-1-(6-methoxy-5-(1H-pyrazol-4-yl)pyridin-2 yl)pyrrolidin-2-one]",< 10
4,"COc1cc(NC2CCN(c3ccc(-c4cn[nH]c4)c(F)c3)C2=O)ccc1F (single isomer, unassigned) [Example 333, 3-((4-fluoro-3-methoxyphenyl)amino)-1-(3-fluoro-4-(1H-pyrazol-4-yl)phenyl) pyrrolidin-2-one]",< 10
5,"O=C1C(Nc2ccccc2)CCN1c1ccc(-c2cn[nH]c2)c(F)c1 (single isomer, unassigned) [Example 44, 1-(3-fluoro-4-(1H-pyrazol-4-yl)phenyl)-3-(phenylamino)pyrrolidin-2-one]",< 10
6,"COc1cccc(NC2CCN(c3ccc(-c4cn[nH]c4)cc3)C2=O)c1 (single isomer, unassigned) [Example 29, 1-(4-(1H-pyrazol-4-yl)phenyl)-3-((3-methoxyphenyl)amino)pyrrolidin-2-one]",< 10
7,"COc1cc(NC2CCN(c3ccc(-c4cn[nH]c4)cc3)C2=O)cc(OC)c1 (single isomer, unassigned) [Example 22, 1-(4-(1H-pyrazol-4-yl)phenyl)-3-((3,5-dimethoxyphenyl)amino)pyrrolidin-2-one]",100 to 2200
